Results taken from patent publication US10100050B2 (CHIESI FARMACEUTICI S.P.A., priority 2015, dated 2018).
Structures can show the parent of a compound that is named as a salt.

What was measured:
[1] = molecular target: T1, p38alpha (Homo sapiens, UniProt Q16539); assay: P38alpha enzyme inhibition assay (Alphascreen kinase activity assay); type: biochemical; settings: IC50 classes; 2 hours preincubation at 25° C., 250 μM ATP; read-out: p38α inhibition
T1 construct: purchased Invitrogen PV3304
Procedure: P38alpha Enzyme Inhibition Assay
The inhibitory activity of compounds was determined using an Alphascreen® (Perkin Elmer) based kinase activity assay. Kinase reactions consisted of 25 mM HEPES pH 7.5, 10 mM MgCl2, 100 μM Na3VO4, 2 mM DTT, 0.05 mg/ml Tween […] (Invitrogen, PV3304), 1% DMSO and 0.3 μg/ml ATF-2 fusion protein (New England Biolabs, 9224). Compounds were incubated under these conditions for 2 hours, at 25° C., prior to the initiation of the kinase activity by the addition of the 250 μM ATP. Reaction volumes were 20 uL. After 1 hr at 25° C. reactions were stopped by the adding 10 uL of 25 mM HEPES pH 7.5 containing 62.5 mM EDTA, 0.05% Triton X-100, 10% BSA and 0.83 ng/uL anti-phospho-ATF2 antibody (Abcam, ab28812). Detection was performed by measuring luminescence following the addition of Alphascreen Donor beads (Perkin Elmer 6765300) and Protein A Alphascreen Acceptor beads (Perkin Elmer 6760137), both at a final concentration of 20 ug/ml. IC50 values were determined from concentration-response curves.

[2] = test system: Peripheral Blood Mononuclear Cells (PBMCs); assay: LPS-stimulated PBMC TNFα release assay; type: cell-based; settings: IC50 classes; human PBMC, LPS 10 ng/ml, 18 h; read-out: LPS-stimulated PBMC TNFα release inhibition
Procedure: 1-10 nM ‘+’; • <1 nM ‘++’ LPS-Stimulated PBMC TNFα Release Assay
Peripheral Blood Mononuclear Cells (PBMCs) were isolated from healthy human volunteer blood using a standard density gradient centrifugation technique. Citrated blood was placed onto Histopaque™ and centrifuged. The PBMCs were removed from the density gradient interface and washed in phosphate buffered saline (PBS). The PBMCs were suspended in RPMI 1640 medium (without serum), dispensed into a 96-well plate and incubated at 37° C. for 3 h in a humidified incubator. After incubation, the medium was replaced (with medium containing 1% foetal bovine serum) and the plate incubated at 37° C., for 1 h, in the presence of test compound or the appropriate vehicle. LPS (10 ng/ml), or an appropriate vehicle control, was then added to the cells and the plate returned to the incubator for 18 h. Cell-free supernatants were removed and assayed for TNFα levels using MSD plates on the Sector Imager 6000 (MesoScale).
A dose response curve to each test compound was performed and the effect of compound in each experiment was expressed as a percentage inhibition of the control TNFα release. Dose response curves were plotted and compound potency (IC50) was determined. Compounds were tested in at least three separate experiments.

[3] = test system: BEAS-2B cells; assay: TNFα-stimulated BEAS-2B IL-8 release assay; type: cell-based; settings: Homo sapiens, IC50 classes, TNF-α 10 ng/ml, 18 h, read-out: TNFα-stimulated BEAS-2B IL-8 release inhibition
Procedure: TNFα-Stimulated BEAS-2B IL-8 Release Assay
Human bronchial epithelial cell line BEAS-2B was purchased from Sigma (St. Louis, Mo.). BEAS-2B cells were cultured in Bronchial Epithelial cell Growth Medium (BEGM), prepared by supplementing Bronchial Epithelial Basal Medium with SingleQuotes™ (Lonza, Switzerland), which contains retinoic acid, epidermal growth factor, epinephrine, transferrin, triiodothyronin, insulin, hydrocortisone, antimicrobial agents, and bovine pituitary extract. In addition, BEGM medium was supplemented with 2 mM glutamine, 100 U penicillin and 100 μg/ml streptomycin (Life Technologies), in an atmosphere of 95% air and 5% CO2 at 37° C.
BEAS-2B were seeded in 48-well plates at the density of 3×10^4 cells per well, grown to approximately 80-90% confluence. Cells were pre-incubated with p38 inhibitors for 1 hour and then stimulated with TNF-α (10 ng/ml) for 18 h at 37° C. with 5% CO2. Subsequently, supernatants were collected and used for measuring IL-8 levels using a paired antibody quantitative ELISA kit purchased from Life Technologies (detection limit: […]). All the treatments were performed at least in quadruplicate.
A concentration-response curve to each test compound was performed and the effect of compound in each experiment was expressed as a percentage inhibition of the control IL-8 release. Compound potency (IC50) was calculated by the analysis of the sigmoidal dose-response curve (variable slope) elaborated by Graph Pad PRISM4 program.

T1 sequence (Q16539 whole entry): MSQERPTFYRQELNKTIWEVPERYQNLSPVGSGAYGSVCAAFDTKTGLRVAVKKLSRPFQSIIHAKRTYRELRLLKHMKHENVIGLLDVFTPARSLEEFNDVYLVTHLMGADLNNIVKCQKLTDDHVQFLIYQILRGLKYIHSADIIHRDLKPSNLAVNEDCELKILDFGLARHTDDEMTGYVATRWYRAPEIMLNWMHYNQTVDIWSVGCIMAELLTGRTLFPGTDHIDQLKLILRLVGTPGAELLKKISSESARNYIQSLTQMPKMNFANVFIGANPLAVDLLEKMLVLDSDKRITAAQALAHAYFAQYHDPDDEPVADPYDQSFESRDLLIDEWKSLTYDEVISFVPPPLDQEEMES

IC50 [1]	SMILES	IC50 [2]	IC50 [3]
< 1 nM	CN(CCO)Cc1cc(NC(=O)N[C@H]2CC[C@@H](Oc3ccc4nnc([C@]5(C)CCCN5C)n4c3)c3ccccc32)cc(C(C)(C)C)c1 [Example 67, 1-(3-tert-Butyl-5-{[(2-hydroxy-ethyl)-methyl-amino]-methyl}-phenyl)-3-{(1S,4R)-4-[3-((S)-1,2-dimethyl-pyrrolidin-2-yl)-[1,2,4]triazolo[4,3-a]pyridin-6-yloxy]-1,2,3,4-tetrahydro-naphthalen-1-yl}-urea]	> 5 nM	0.3 to 1 nM
< 1 nM	CN1CCC[C@@]1(C)c1nnc2ccc(O[C@@H]3CC[C@H](NC(=O)Nc4cc(NS(C)(=O)=O)cc(C(C)(C)C)c4)c4ccccc43)cn12 [Example 24, N-[3-tert-Butyl-5-(3-{(1S,4R)-4-[3-((S)-1,2-dimethyl-pyrrolidin-2-yl)-[1,2,4]triazolo[4,3-a]pyridin-6-yloxy]-1,2,3,4-tetrahydro-naphthalen-1-yl}-ureido)-phenyl]-methanesulfonamide]	< 1 nM	< 0.3 nM
< 1 nM	CN1CCC[C@@]1(C)c1nnc2ccc(O[C@@H]3CC[C@H](NC(=O)Nc4cc(C(C)(C)C)cc(S(C)(=O)=O)c4)c4ccccc43)cn12 [Example 47, 1-(3-tert-Butyl-5-methanesulfonyl-phenyl)-3-{(1S,4R)-4-[3-((S)-1,2-dimethyl-pyrrolidin-2-yl)-[1,2,4]triazolo[4,3-a]pyridin-6-yloxy]-1,2,3,4-tetrahydro-naphthalen-1-yl}-urea]	< 1 nM	< 0.3 nM
< 1 nM	CN(C)CCOCc1cc(NC(=O)N[C@H]2CC[C@@H](Oc3ccc4nnc([C@]5(C)CCCN5C)n4c3)c3ccccc32)cc(C(C)(C)C)c1 [Example 69]	> 5 nM	< 0.3 nM
< 1 nM	CN1CCC[C@@]1(C)c1nnc2ccc(O[C@@H]3CC[C@H](NC(=O)Nc4cc(CO)cc(C(C)(C)C)c4)c4ccccc43)cn12 [Example 49, 1-(3-tert-Butyl-5-hydroxymethyl-phenyl)-3-{(1S,4R)-4-[3-((S)-1,2-dimethyl-pyrrolidin-2-yl)-[1,2,4]triazolo[4,3-a]pyridin-6-yloxy]-1,2,3,4-tetrahydro-naphthalen-1-yl}-urea]	< 1 nM	< 0.3 nM
< 1 nM	Cc1c(NC(=O)N[C@H]2CC[C@@H](Oc3ccc4nnc([C@@H]5CCCN5C)n4c3)c3ccccc32)cc(C(C)(C)C)cc1NS(C)(=O)=O [Example 57, N-[5-tert-Butyl-2-methyl-3-(3-{(1S,4R)-4-[3-((S)-1-methyl-pyrrolidin-2-yl)-[1,2,4]triazolo[4,3,a]pyridin-6-yloxy]-1,2,3,4-tetrahydro-naphthalen-1-yl}-ureido)-phenyl]-methanesulfonamide]	1 to 5 nM	> 1 nM
< 1 nM	CN1CCN(C(C)(C)c2nnc3ccc(O[C@@H]4CC[C@H](NC(=O)Nc5cc(NS(C)(=O)=O)cc(C(C)(C)C)c5)c5ccccc54)cn23)CC1 [Example 62, N-{3-tert-Butyl-5-[3-((1S,4R)-4-{3-[1-methyl-1-(4-methyl-piperazin-1-yl)-ethyl]-[1,2,4]triazolo[4,3-a]pyridin-6-yloxy}-1,2,3,4-tetrahydro-naphthalen-1-yl)-ureido]-phenyl}-methanesulfonamide]	> 5 nM	> 1 nM
< 1 nM	CC(=O)OCc1cc(NC(=O)N[C@H]2CC[C@@H](Oc3ccc4nnc([C@]5(C)CCCN5C)n4c3)c3ccccc32)cc(C(C)(C)C)c1 [Example 44, Acetic acid 3-tert-butyl-5-(3-{(1S,4R)-4-[3-((S)-1,2-dimethyl-pyrrolidin-2-yl)-[1,2,4]triazolo[4,3-a]pyridin-6-yloxy]-1,2,3,4-tetrahydro-naphthalen-1-yl}-ureido)-benzyl ester]	< 1 nM	< 0.3 nM
< 1 nM	CN1CCC[C@H]1c1nnc2ccc(O[C@@H]3CC[C@H](NC(=O)Nc4cc(NS(=O)(=O)C5CC5)cc(C(C)(C)C)c4)c4ccccc43)cn12 [Example 36, Cyclopropanesulfonic acid [3-tert-butyl-5-(3-{(1S,4R)-4-[3-((S)-1-methyl-pyrrolidin-2-yl)-[1,2,4]triazolo[4,3-a]pyridin-6-yloxy]-1,2,3,4-tetrahydro-naphthalen-1-yl}-ureido)-phenyl]-amide]	1 to 5 nM	0.3 to 1 nM
< 1 nM	COc1c(NC(C)=O)cc(C(C)(C)C)cc1NC(=O)N[C@H]1CC[C@@H](Oc2ccc3nnc([C@@H]4CCCN4C)n3c2)c2ccccc21 [Example 11, N-[5-tert-Butyl-2-methoxy-3-(3-{(1S,4R)-4-[3-((S)-1-methyl-pyrrolidin-2-yl)-[1,2,4]triazolo[4,3-a]pyridin-6-yloxy]-1,2,3,4-tetrahydro-naphthalen-1-yl}-ureido)-phenyl]-acetamide]	< 1 nM	> 1 nM
1 to 10 nM	COC(=O)c1cc(NC(=O)N[C@H]2CC[C@@H](Oc3ccc4nnc([C@]5(C)CCCN5C)n4c3)c3ccccc32)cc(C(C)(C)C)c1 [Example 41, 3-tert-Butyl-5-(3-{(1S,4R)-4-[3-((S)-1,2-dimethyl-pyrrolidin-2-yl)-[1,2,4]triazolo[4,3-a]pyridin-6-yloxy]-1,2,3,4-tetrahydro-naphthalen-1-yl}-ureido)-benzoic acid methyl ester]		< 0.3 nM
< 1 nM	CN1CCC[C@H]1c1nnc2ccc(O[C@@H]3CC[C@H](NC(=O)Nc4cc(C(=O)NCCO)cc(C(C)(C)C)c4)c4ccccc43)cn12 [Example 50, 3-tert-Butyl-N-(2-hydroxy-ethyl)-5-(3-{(1S,4R)-4-[3-((S)-1-methyl-pyrrolidin-2-yl)-[1,2,4]triazolo[4,3-a]pyridin-6-yloxy]-1,2,3,4-tetrahydro-naphthalen-1-yl}-ureido)-benzamide]	> 5 nM	
1 to 10 nM	COc1c(NC(=O)N[C@H]2CC[C@@H](Oc3ccc4nnc([C@@H]5CCCN5C)n4c3)c3ccccc32)cc(C(C)(C)C)cc1N(CCO)S(C)(=O)=O [Example 17, N-[5-tert-Butyl-2-methoxy-3-(3-{(1S,4R)-4-[3-((S)-1-methyl-pyrrolidin-2-1)-[1,2,4]triazolo[4,3-a]pyridin-6-yloxy]-1,2,3,4-tetrahydro-naphthalen-1-yl}-ureido)-phenyl]-N-(2-hydroxy-ethyl)-methanesulfonamide formate salt]	> 5 nM	
< 1 nM	CN1CCC[C@H]1c1nnc2ccc(O[C@@H]3CC[C@H](NC(=O)Nc4cc(C(N)=O)cc(C(C)(C)C)c4)c4ccccc43)cn12 [Example 52, 3-tert-Butyl-5-(3-{(1S,4R)-4-[3-((S)-1-methyl-pyrrolidin-2-yl)-[1,2,4]triazolo[4,3-a]pyridin-6-yloxy]-1,2,3,4-tetrahydro-naphthalen-1-yl}-ureido)-benzamide]	1 to 5 nM	
1 to 10 nM	COc1c(NC(=O)N[C@H]2CC[C@@H](Oc3ccc4nnc(N5CCCCC5)n4c3)c3ccccc32)cc(C(C)(C)C)cc1N(CCN(C)C)S(C)(=O)=O [Example 60, N-(5-tert-Butyl-2-methoxy-3-{3-[(1S,4R)-4-(3-piperidin-1-yl-[1,2,4]triazolo[4,3,a]pyridin-6-yloxy)-1,2,3,4-tetrahydro-naphthalen-1-yl]-ureido}-phenyl-N-(2-dimethylamino-ethyl)-methanesulfonamide formate salt]	> 5 nM	
